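Method: 48-hour compound exposure of cells in 96-well plates, five concentrations, linear interpolation of endpoints. At the GI50, growth is halved. TGI marks complete inhibition of growth.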
Columns and labels:
Experiment in all cases: growth of human tumour cells (NCI), 48 h
SK-MEL-28 melanoma = system: SK-MEL-28 melanoma
UACC-257 melanoma = system: UACC-257 melanoma
RPMI-8226 leukemia = system: RPMI-8226 leukemia
SN12C renal = system: SN12C renal
LOX IMVI melanoma = system: LOX IMVI melanoma
A549 NSCLC = system: A549 NSCLC
MOLT-4 leukemia = system: MOLT-4 leukemia
DU-145 prostate = system: DU-145 prostate
NCI/ADR-RES ovarian = system: NCI/ADR-RES ovarian
SNB-19 CNS = system: SNB-19 CNS
SR leukemia = system: SR leukemia
HS 578T breast = system: HS 578T breast
NCI-H226 lung = system: NCI-H226 lung
COLO 205 colon = system: COLO 205 colon
786-0 renal = system: 786-0 renal
SK-OV-3 ovarian = system: SK-OV-3 ovarian
HOP-62 NSCLC = system: HOP-62 NSCLC
OVCAR-8 ovarian = system: OVCAR-8 ovarian
OVCAR-3 ovarian = system: OVCAR-3 ovarian
KM12 colon = system: KM12 colon
EKVX NSCLC = system: EKVX NSCLC
TK-10 renal = system: TK-10 renal
HOP-92 NSCLC = system: HOP-92 NSCLC
K-562 leukemia = system: K-562 leukemia
BT-549 breast = system: BT-549 breast
M14 melanoma = system: M14 melanoma
CCRF-CEM leukemia = system: CCRF-CEM leukemia
CAKI-1 renal = system: CAKI-1 renal
PC-3 prostate = system: PC-3 prostate
MDA-MB-231 breast = system: MDA-MB-231 breast
HCT-15 colon = system: HCT-15 colon
ACHN renal = system: ACHN renal
IGROV1 ovarian = system: IGROV1 ovarian
SF-295 CNS = system: SF-295 CNS
OVCAR-4 ovarian = system: OVCAR-4 ovarian
HCT-116 colon = system: HCT-116 colon
NCI-H522 lung = system: NCI-H522 lung
MDA-MB-435 = system: MDA-MB-435
UACC-62 melanoma = system: UACC-62 melanoma
MDA-MB-468 breast = system: MDA-MB-468 breast
OVCAR-5 ovarian = system: OVCAR-5 ovarian
RXF 393 renal = system: RXF 393 renal
U251 CNS = system: U251 CNS
SK-MEL-5 melanoma = system: SK-MEL-5 melanoma
SF-268 CNS = system: SF-268 CNS
T-47D breast = system: T-47D breast
MALME-3M melanoma = system: MALME-3M melanoma
MCF7 breast = system: MCF7 breast
NCI-H460 lung = system: NCI-H460 lung
SW-620 colon = system: SW-620 colon
SF-539 CNS = system: SF-539 CNS
A498 renal = system: A498 renal
SK-MEL-2 melanoma = system: SK-MEL-2 melanoma
NCI-H23 lung = system: NCI-H23 lung
HL-60(TB) leukemia = system: HL-60(TB) leukemia
HT29 colon = system: HT29 colon
SNB-75 CNS = system: SNB-75 CNS
HCC-2998 colon = system: HCC-2998 colon
UO-31 renal = system: UO-31 renal

N#Cc1ccc(-c2nn(-c3ccc(C(=O)O)cc3)cc2CNc2cc(Cl)cc(C(F)(F)F)c2)cc1
GI50 (SK-MEL-28 melanoma): 4.6 µM | TGI (SK-MEL-28 melanoma): 28.3 µM | GI50 (UACC-257 melanoma): 7.02 µM | TGI (UACC-257 melanoma): 40.2 µM | GI50 (RPMI-8226 leukemia): 3.87 µM | TGI (RPMI-8226 leukemia): 63.5 µM | GI50 (SN12C renal): 6.89 µM | TGI (SN12C renal): 33 µM | GI50 (LOX IMVI melanoma): 5.95 µM | TGI (LOX IMVI melanoma): 20.3 µM | GI50 (A549 NSCLC): 7.98 µM | TGI (A549 NSCLC): 32.1 µM | GI50 (MOLT-4 leukemia): 4.26 µM | TGI (MOLT-4 leukemia): 22.9 µM | GI50 (DU-145 prostate): 11.9 µM | TGI (DU-145 prostate): > 100 µM | GI50 (NCI/ADR-RES ovarian): 7.45 µM | TGI (NCI/ADR-RES ovarian): 26.8 µM | GI50 (SNB-19 CNS): 7.61 µM | TGI (SNB-19 CNS): 33.7 µM | GI50 (SR leukemia): 3.77 µM | TGI (SR leukemia): > 100 µM | GI50 (HS 578T breast): 7.95 µM | TGI (HS 578T breast): 36.1 µM | GI50 (NCI-H226 lung): 10.9 µM | TGI (NCI-H226 lung): 30.6 µM | GI50 (COLO 205 colon): 14 µM | TGI (COLO 205 colon): 58.6 µM | GI50 (786-0 renal): 14.1 µM | TGI (786-0 renal): 32 µM | GI50 (SK-OV-3 ovarian): 15.1 µM | TGI (SK-OV-3 ovarian): 37.9 µM | GI50 (HOP-62 NSCLC): 11.7 µM | TGI (HOP-62 NSCLC): 28.3 µM | GI50 (OVCAR-8 ovarian): 7.28 µM | TGI (OVCAR-8 ovarian): 27.8 µM | GI50 (OVCAR-3 ovarian): 4.98 µM | TGI (OVCAR-3 ovarian): 18.6 µM | GI50 (KM12 colon): 5.71 µM | TGI (KM12 colon): 19.3 µM | GI50 (EKVX NSCLC): 5.47 µM | TGI (EKVX NSCLC): 30.8 µM | GI50 (TK-10 renal): 17.2 µM | TGI (TK-10 renal): > 100 µM | GI50 (HOP-92 NSCLC): 3.48 µM | TGI (HOP-92 NSCLC): 15 µM | GI50 (K-562 leukemia): 3.71 µM | TGI (K-562 leukemia): > 100 µM | GI50 (BT-549 breast): 11.3 µM | TGI (BT-549 breast): 31.1 µM | GI50 (M14 melanoma): 10.1 µM | TGI (M14 melanoma): 35.1 µM | GI50 (CCRF-CEM leukemia): 4.2 µM | TGI (CCRF-CEM leukemia): 20.8 µM | GI50 (CAKI-1 renal): 10.2 µM | TGI (CAKI-1 renal): 45.2 µM | GI50 (PC-3 prostate): 7 µM | TGI (PC-3 prostate): 35.1 µM | GI50 (MDA-MB-231 breast): 12.3 µM | TGI (MDA-MB-231 breast): 37 µM | GI50 (HCT-15 colon): 3.93 µM | TGI (HCT-15 colon): 15.8 µM | GI50 (ACHN renal): 6.42 µM | TGI (ACHN renal): 52.7 µM | GI50 (IGROV1 ovarian): 10.8 µM | TGI (IGROV1 ovarian): 29.3 µM | GI50 (SF-295 CNS): 4.79 µM | TGI (SF-295 CNS): 22.9 µM | GI50 (OVCAR-4 ovarian): 7 µM | TGI (OVCAR-4 ovarian): > 100 µM | GI50 (HCT-116 colon): 4.46 µM | TGI (HCT-116 colon): 17.1 µM | GI50 (NCI-H522 lung): 3.18 µM | TGI (NCI-H522 lung): 12.1 µM | GI50 (MDA-MB-435): 7.05 µM | TGI (MDA-MB-435): 56.4 µM | GI50 (UACC-62 melanoma): 3.64 µM | TGI (UACC-62 melanoma): 14.4 µM | GI50 (MDA-MB-468 breast): 6.83 µM | TGI (MDA-MB-468 breast): 38.8 µM | GI50 (OVCAR-5 ovarian): 18.5 µM | TGI (OVCAR-5 ovarian): 36 µM | GI50 (RXF 393 renal): 10.3 µM | TGI (RXF 393 renal): 24.7 µM | GI50 (U251 CNS): 7.26 µM | TGI (U251 CNS): 32.6 µM | GI50 (SK-MEL-5 melanoma): 3.41 µM | TGI (SK-MEL-5 melanoma): 13.5 µM | GI50 (SF-268 CNS): 14.3 µM | TGI (SF-268 CNS): 67 µM | GI50 (T-47D breast): 3.8 µM | TGI (T-47D breast): > 100 µM | GI50 (MALME-3M melanoma): 6.44 µM | TGI (MALME-3M melanoma): 31.9 µM | GI50 (MCF7 breast): 5.16 µM | TGI (MCF7 breast): 26 µM | GI50 (NCI-H460 lung): 6.67 µM | TGI (NCI-H460 lung): 21 µM | GI50 (SW-620 colon): 9.22 µM | TGI (SW-620 colon): 25 µM | GI50 (SF-539 CNS): 11.4 µM | TGI (SF-539 CNS): 24 µM | GI50 (A498 renal): 15.8 µM | TGI (A498 renal): 41 µM | GI50 (SK-MEL-2 melanoma): 2960 nM | TGI (SK-MEL-2 melanoma): 9.48 µM | GI50 (NCI-H23 lung): 5.19 µM | TGI (NCI-H23 lung): 19.4 µM | GI50 (HL-60(TB) leukemia): 6.31 µM | TGI (HL-60(TB) leukemia): 31.8 µM | GI50 (HT29 colon): 13.5 µM | TGI (HT29 colon): 38.2 µM | GI50 (SNB-75 CNS): 15.5 µM | TGI (SNB-75 CNS): 45.6 µM | GI50 (HCC-2998 colon): 6.46 µM | TGI (HCC-2998 colon): 19.8 µM | GI50 (UO-31 renal): 4.34 µM | TGI (UO-31 renal): 22 µM

— PubChem BioAssay (NCI)
